Tested on: MV-4-11 cells
Assay: Gene expression microarray analysis (Affymetrix PrimeView) and GSEA
Type: cell-based, human
Parameters: RFU PODN (11730768_x_at) / Fold change /veh PODN (11730768_x_at) / RFU LINC00158 (11744669_a_at) / Fold change /veh LINC00158 (11744669_a_at) / RFU DUSP10 (11751237_a_at) / Fold change /veh DUSP10 (11751237_a_at) / RFU ID3 (11757404_x_at) / Fold change /veh ID3 (11757404_x_at) / RFU PLEKHG5 (11737974_s_at) / Fold change /veh PLEKHG5 (11737974_s_at) / RFU LRRC4B (11730491_at) / Fold change /veh LRRC4B (11730491_at) / RFU GIMAP4 (11747438_a_at) / Fold change /veh GIMAP4 (11747438_a_at) / RFU KRT8 (11758183_x_at) / Fold change /veh KRT8 (11758183_x_at) / RFU CNN1 (11734310_a_at) / Fold change /veh CNN1 (11734310_a_at) / RFU VPS37D (11726825_at) / Fold change /veh VPS37D (11726825_at) / RFU C10orf10 (11716522_x_at) / Fold change /veh C10orf10 (11716522_x_at) / RFU KIR2DL2 /// KIR2DL4 /// KIR2DL5A /// KIR2DL5B /// KIR2DS1 /// KIR2DS2 /// KIR2DS3 /// KIR2DS4 /// KIR3DL3 /// KIR3DL3 /// KIR3DS1 (11738374_at) / Fold change /veh KIR2DL2 /// KIR2DL4 /// KIR2DL5A /// KIR2DL5B /// KIR2DS1 /// KIR2DS2 /// KIR2DS3 /// KIR2DS4 /// KIR3DL3 /// KIR3DL3 /// KIR3DS1 (11738374_at) / RFU C1QL1 (11718748_at) / Fold change /veh C1QL1 (11718748_at) / RFU TMPRSS4 (11747572_a_at) / Fold change /veh TMPRSS4 (11747572_a_at) / RFU HAMP (11756126_x_at) / Fold change /veh HAMP (11756126_x_at) / RFU RNFT2 (11725882_a_at) / Fold change /veh RNFT2 (11725882_a_at) / RFU NR4A2 (11747474_a_at) / Fold change /veh NR4A2 (11747474_a_at) / RFU ABCC12 (11746883_a_at) / Fold change /veh ABCC12 (11746883_a_at) / RFU TMEM136 (11760407_x_at) / Fold change /veh TMEM136 (11760407_x_at) / RFU CLDN22 /// WWC2 (11732394_at) / Fold change /veh CLDN22 /// WWC2 (11732394_at) / RFU HLA-DPB1 (11760878_x_at) / Fold change /veh HLA-DPB1 (11760878_x_at) / RFU SPINT1 (11716480_a_at) / Fold change /veh SPINT1 (11716480_a_at) / RFU GAP43 (11754022_s_at) / Fold change /veh GAP43 (11754022_s_at) / RFU A4GNT (11735810_at) / Fold change /veh A4GNT (11735810_at) / RFU PRB3 (11715151_x_at) / Fold change /veh PRB3 (11715151_x_at) / RFU TUBB4B (11761932_at) / Fold change /veh TUBB4B (11761932_at) / RFU CAPN14 (11732068_a_at) / Fold change /veh CAPN14 (11732068_a_at) / RFU TMCC2 (11721928_a_at) / Fold change /veh TMCC2 (11721928_a_at) / RFU IRGQ (11745062_a_at) / Fold change /veh IRGQ (11745062_a_at) / RFU FAM174B (11720279_a_at) / Fold change /veh FAM174B (11720279_a_at) / RFU TMPRSS4 (11748680_a_at) / Fold change /veh TMPRSS4 (11748680_a_at) / RFU FAM212B (11763350_a_at) / Fold change /veh FAM212B (11763350_a_at) / RFU PLEKHG5 (11743358_a_at) / Fold change /veh PLEKHG5 (11743358_a_at) / RFU ZSCAN30 (11745921_a_at) / Fold change /veh ZSCAN30 (11745921_a_at) / RFU CMKLR1 (11741424_a_at) / Fold change /veh CMKLR1 (11741424_a_at) / RFU LOC101060620 /// MAPK8IP1 (11723275_at) / Fold change /veh LOC101060620 /// MAPK8IP1 (11723275_at) / RFU SPTSSB (11747773_x_at) / Fold change /veh SPTSSB (11747773_x_at) / RFU PRSS12 (11739890_at) / Fold change /veh PRSS12 (11739890_at) / RFU BIN1 (11741810_x_at) / Fold change /veh BIN1 (11741810_x_at) / RFU WNT11 (11732464_a_at) / Fold change /veh WNT11 (11732464_a_at) / RFU C10orf10 (11716521_a_at) / Fold change /veh C10orf10 (11716521_a_at) / RFU C5orf56 (11738089_at) / Fold change /veh C5orf56 (11738089_at) / RFU CYB561 (11721691_x_at) / Fold change /veh CYB561 (11721691_x_at) / RFU ANKRD19P (11752326_a_at) / Fold change /veh ANKRD19P (11752326_a_at) / RFU OR2T12 /// OR2T33 /// OR2T8 (11738714_s_at) / Fold change /veh OR2T12 /// OR2T33 /// OR2T8 (11738714_s_at) / RFU VCAN (11748164_a_at) / Fold change /veh VCAN (11748164_a_at) / RFU JSRP1 (11732532_at) / Fold change /veh JSRP1 (11732532_at) / RFU KRTAP10-11 (11738290_x_at) / Fold change /veh KRTAP10-11 (11738290_x_at) / RFU MYO3A (11730013_a_at) / Fold change /veh MYO3A (11730013_a_at) / RFU EBF3 (11725865_a_at) / Fold change /veh EBF3 (11725865_a_at) / RFU CAMK2N1 (11719241_x_at) / Fold change /veh CAMK2N1 (11719241_x_at) / RFU C5orf56 (11738088_a_at) / Fold change /veh C5orf56 (11738088_a_at) / RFU OLFML3 (11715873_a_at) / Fold change /veh OLFML3 (11715873_a_at) / RFU LOC100653217 /// NTM (11731650_a_at) / Fold change /veh LOC100653217 /// NTM (11731650_a_at) / RFU MAPK11 (11762145_a_at) / Fold change /veh MAPK11 (11762145_a_at) / RFU FIZ1 (11724087_x_at) / Fold change /veh FIZ1 (11724087_x_at) / RFU OASL (11726364_x_at) / Fold change /veh OASL (11726364_x_at) / RFU SOX15 (11748057_x_at) / Fold change /veh SOX15 (11748057_x_at) / RFU CD79A (11719716_a_at) / Fold change /veh CD79A (11719716_a_at) / RFU HIST1H1D (11736915_at) / Fold change /veh HIST1H1D (11736915_at) / RFU CASKIN2 (11723855_a_at) / Fold change /veh CASKIN2 (11723855_a_at) / RFU LOC730098 (11760151_x_at) / Fold change /veh LOC730098 (11760151_x_at) / RFU OR4N2 (11742367_at) / Fold change /veh OR4N2 (11742367_at) / RFU PRRT2 (11749266_a_at) / Fold change /veh PRRT2 (11749266_a_at) / RFU SNX32 (11753110_a_at) / Fold change /veh SNX32 (11753110_a_at) / RFU CDHR5 (11726645_a_at) / Fold change /veh CDHR5 (11726645_a_at) / RFU RCAN1 (11760418_a_at) / Fold change /veh RCAN1 (11760418_a_at) / RFU FAM167A (11723789_a_at) / Fold change /veh FAM167A (11723789_a_at) / RFU FAM26E (11764081_at) / Fold change /veh FAM26E (11764081_at) / RFU ISYNA1 (11749810_s_at) / Fold change /veh ISYNA1 (11749810_s_at) / RFU ACY1 (11761880_at) / Fold change /veh ACY1 (11761880_at) / RFU 11764098_at / Fold change /veh 11764098_at / RFU SAMD14 (11745864_x_at) / Fold change /veh SAMD14 (11745864_x_at) / RFU NPB (11741838_a_at) / Fold change /veh NPB (11741838_a_at) / RFU TMPRSS6 (11731388_a_at) / Fold change /veh TMPRSS6 (11731388_a_at) / RFU KRTAP10-2 (11738614_at) / Fold change /veh KRTAP10-2 (11738614_at) / RFU ARHGAP8 /// PRR5-ARHGAP8 (11727945_x_at) / Fold change /veh ARHGAP8 /// PRR5-ARHGAP8 (11727945_x_at) / RFU KRTAP5-7 /// NADSYN1 (11734609_at) / Fold change /veh KRTAP5-7 /// NADSYN1 (11734609_at) / RFU RASL12 (11751679_a_at) / Fold change /veh RASL12 (11751679_a_at) / RFU CDKN2B (11736163_a_at) / Fold change /veh CDKN2B (11736163_a_at) / RFU PRF1 (11729649_at) / Fold change /veh PRF1 (11729649_at) / RFU, ZNF638 /// ZNF638-IT1 / Fold change vs veh, ZNF638 /// ZNF638-IT1 / RFU, PANK3 / Fold change vs veh, PANK3 / RFU, SH3YL1 / Fold change vs veh, SH3YL1 / RFU, ZEB2 / Fold change vs veh, ZEB2 / RFU, NRIP1 / Fold change vs veh, NRIP1 / RFU, PTTG1IP / Fold change vs veh, PTTG1IP / RFU, CAPN2 / Fold change vs veh, CAPN2 / RFU, MED14 / Fold change vs veh, MED14 / RFU, SNORA58 / Fold change vs veh, SNORA58 / RFU, C1orf63 / Fold change vs veh, C1orf63 / RFU, LRRFIP1 / Fold change vs veh, LRRFIP1 / RFU, NDUFAF7 / Fold change vs veh, NDUFAF7 / RFU, SLC12A2 / Fold change vs veh, SLC12A2 / RFU, IBTK / Fold change vs veh, IBTK / RFU, ESF1 / Fold change vs veh, ESF1 / Fold change vs veh, TMEM50B / RFU, TAOK1 / Fold change vs veh, TAOK1 / RFU, ACBD3 / Fold change vs veh, ACBD3 / RFU, TMA16 / Fold change vs veh, TMA16 / RFU, RWDD3 / Fold change vs veh, RWDD3 / RFU, BCAT1 / Fold change vs veh, BCAT1 / RFU, EDEM3 / Fold change vs veh, EDEM3 / RFU, TMEM33 / Fold change vs veh, TMEM33 / RFU, WDR75 / Fold change vs veh, WDR75 / RFU, AHCTF1 / Fold change vs veh, AHCTF1 / RFU, TFRC / Fold change vs veh, TFRC / RFU, ZDHHC17 / Fold change vs veh, ZDHHC17 / RFU, NOM1 / Fold change vs veh, NOM1 / RFU, ARL8B / Fold change vs veh, ARL8B / RFU, ZBTB11 / Fold change vs veh, ZBTB11 / RFU, TAMM41 / Fold change vs veh, TAMM41 / RFU, KIAA1704 /// LOC100996395 / Fold change vs veh, KIAA1704 /// LOC100996395 / RFU, ING1 / Fold change vs veh, ING1 / RFU, TRMT61B / Fold change vs veh, TRMT61B / RFU, FUBP3 / Fold change vs veh, FUBP3 / RFU, TP53 / Fold change vs veh, TP53 / RFU, TNKS2 / Fold change vs veh, TNKS2 / RFU, ZFP14 / Fold change vs veh, ZFP14 / RFU, ACTR2 / Fold change vs veh, ACTR2 / RFU, PPP3R1 / Fold change vs veh, PPP3R1 / RFU, PIK3R1 / Fold change vs veh, PIK3R1 / RFU, HNRNPA1 / Fold change vs veh, HNRNPA1 / RFU, RNF170 / Fold change vs veh, RNF170 / RFU, ZNF28 / Fold change vs veh, ZNF28 / RFU, RNGTT / Fold change vs veh, RNGTT / RFU, OGT / Fold change vs veh, OGT / RFU, BRD1 / Fold change vs veh, BRD1 / RFU, MARS / Fold change vs veh, MARS / RFU, ZNF655 / Fold change vs veh, ZNF655 / RFU, FAHD1 / Fold change vs veh, FAHD1 / RFU, BDP1 / Fold change vs veh, BDP1 / RFU, LRRCC1 / Fold change vs veh, LRRCC1 / RFU, ARID1A / Fold change vs veh, ARID1A / RFU, ZNF146 / Fold change vs veh, ZNF146 / RFU, ZNF330 / Fold change vs veh, ZNF330 / RFU, GPN3 / Fold change vs veh, GPN3 / RFU, C9orf123 / Fold change vs veh, C9orf123 / RFU, N4BP2L2 / Fold change vs veh, N4BP2L2 / RFU, ARFIP1 / Fold change vs veh, ARFIP1 / RFU, FAM179B / Fold change vs veh, FAM179B / RFU, BCL10 / Fold change vs veh, BCL10 / RFU, UHRF1BP1L / Fold change vs veh, UHRF1BP1L / RFU, BET1 / Fold change vs veh, BET1 / RFU, CNOT2 / Fold change vs veh, CNOT2 / RFU, ZNF268 / Fold change vs veh, ZNF268 / Fold change vs veh, ZNF507 / RFU, DGCR2 / Fold change vs veh, DGCR2 / RFU, WDSUB1 / Fold change vs veh, WDSUB1 / Fold change vs veh, HSP90B1 /// MIR3652 / RFU, ADSS / Fold change vs veh, ADSS / RFU, GK / Fold change vs veh, GK / RFU, ZNF148 / Fold change vs veh, ZNF148 / RFU, TAF9 / Fold change vs veh, TAF9 / RFU, SLC1A5 / Fold change vs veh, SLC1A5 / RFU, SLMO2 / Fold change vs veh, SLMO2 / RFU, ABCC4 / Fold change vs veh, ABCC4 / RFU, LOC101060439 /// RAP1B / Fold change vs veh, LOC101060439 /// RAP1B / RFU, RFX7 / Fold change vs veh, RFX7 / RFU, GTPBP10 / Fold change vs veh, GTPBP10 / RFU, CNEP1R1 / Fold change vs veh, CNEP1R1 / RFU, BIVM-ERCC5 /// ERCC5 / Fold change vs veh, BIVM-ERCC5 /// ERCC5 / RFU, ILF3 / Fold change vs veh, ILF3 / RFU 11762660_at / Fold change /veh 11762660_at / RFU VCAN (11757783_s_at) / Fold change /veh VCAN (11757783_s_at) / RFU DDX43 (11728927_at) / Fold change /veh DDX43 (11728927_at) / RFU KRT8 (11758188_x_at) / Fold change /veh KRT8 (11758188_x_at) / RFU NKD1 (11759106_at) / Fold change /veh NKD1 (11759106_at) / RFU SRD5A1 (11742802_a_at) / Fold change /veh SRD5A1 (11742802_a_at) / RFU TPSAB1 /// TPSB2 (11721975_s_at) / Fold change /veh TPSAB1 /// TPSB2 (11721975_s_at) / RFU GSTM3 (11746129_a_at) / Fold change /veh GSTM3 (11746129_a_at) / RFU IL23R (11737362_x_at) / Fold change /veh IL23R (11737362_x_at) / RFU TMEM51 (11727254_a_at) / Fold change /veh TMEM51 (11727254_a_at) / RFU PIWIL2 (11732686_x_at) / Fold change /veh PIWIL2 (11732686_x_at) / RFU ORM1 (11744905_x_at) / Fold change /veh ORM1 (11744905_x_at) / RFU CCDC152 (11743942_at) / Fold change /veh CCDC152 (11743942_at) / RFU ECM1 (11717891_a_at) / Fold change /veh ECM1 (11717891_a_at) / RFU IL23R (11748794_a_at) / Fold change /veh IL23R (11748794_a_at) / RFU TNFAIP8L3 (11732012_x_at) / Fold change /veh TNFAIP8L3 (11732012_x_at) / RFU MBOAT4 (11741988_at) / Fold change /veh MBOAT4 (11741988_at) / RFU 11764193_at / Fold change /veh 11764193_at / RFU TMEM53 (11763286_at) / Fold change /veh TMEM53 (11763286_at) / RFU MAGEB2 (11727129_at) / Fold change /veh MAGEB2 (11727129_at) / RFU TMEM200A (11744735_a_at) / Fold change /veh TMEM200A (11744735_a_at) / RFU CCDC152 (11751479_a_at) / Fold change /veh CCDC152 (11751479_a_at) / RFU FAM211A (11726209_a_at) / Fold change /veh FAM211A (11726209_a_at) / RFU RGS16 (11746705_a_at) / Fold change /veh RGS16 (11746705_a_at) / RFU VCAN (11755009_s_at) / Fold change /veh VCAN (11755009_s_at) / RFU RHOB (11743442_s_at) / Fold change /veh RHOB (11743442_s_at) / RFU RGS16 (11720943_a_at) / Fold change /veh RGS16 (11720943_a_at) / RFU RGS16 (11720944_at) / Fold change /veh RGS16 (11720944_at) / RFU, VPS4B / Fold change vs veh, VPS4B / RFU, CREB1 / Fold change vs veh, CREB1 / RFU, DNAJC13 / Fold change vs veh, DNAJC13 / RFU, GNAQ / Fold change vs veh, GNAQ / RFU, CDK5R1 / Fold change vs veh, CDK5R1 / RFU, ZRANB3 / Fold change vs veh, ZRANB3 / RFU, CUL4A / Fold change vs veh, CUL4A / RFU, CCNY / Fold change vs veh, CCNY / RFU, UFL1 / Fold change vs veh, UFL1 / RFU, COG3 / Fold change vs veh, COG3 / RFU, DIAPH2 / Fold change vs veh, DIAPH2 / RFU, SKA2 / Fold change vs veh, SKA2 / RFU, AFF3 / Fold change vs veh, AFF3 / RFU, LMF1 / Fold change vs veh, LMF1 / RFU, IPO11 / Fold change vs veh, IPO11 / RFU, DFFB / Fold change vs veh, DFFB / RFU, FOXP1 / Fold change vs veh, FOXP1 / RFU, CARD8 / Fold change vs veh, CARD8 / RFU, STRN3 / Fold change vs veh, STRN3 / RFU, ADK / Fold change vs veh, ADK / RFU, RASSF2 / Fold change vs veh, RASSF2 / RFU, WIPF1 / Fold change vs veh, WIPF1 / RFU, LARP1B / Fold change vs veh, LARP1B / RFU, RASA1 / Fold change vs veh, RASA1 / RFU, RB1 / Fold change vs veh, RB1 / RFU, PPFIA1 / Fold change vs veh, PPFIA1 / RFU, MAT2A / Fold change vs veh, MAT2A / RFU, CCT5 / Fold change vs veh, CCT5 / RFU, WDR92 / Fold change vs veh, WDR92 / RFU, CUX1 / Fold change vs veh, CUX1 / RFU, TTC7A / Fold change vs veh, TTC7A / RFU, TMEM135 / Fold change vs veh, TMEM135 / RFU, DEPTOR / Fold change vs veh, DEPTOR / RFU, CPM / Fold change vs veh, CPM / RFU, DNAJB6 / Fold change vs veh, DNAJB6 / RFU, CACNA2D3 / Fold change vs veh, CACNA2D3 / RFU, DTX4 / Fold change vs veh, DTX4 / RFU, TFCP2 / Fold change vs veh, TFCP2 / RFU, GMCL1 /// GMCL1P1 / Fold change vs veh, GMCL1 /// GMCL1P1 / RFU, AEBP2 / Fold change vs veh, AEBP2 / RFU, SNHG1 /// SNORD22 /// SNORD25 /// SNORD26 /// SNORD27 /// SNORD28 /// SNORD29 /// SNORD31 / Fold change vs veh, SNHG1 /// SNORD22 /// SNORD25 /// SNORD26 /// SNORD27 /// SNORD28 /// SNORD29 /// SNORD31 / Fold change (Aza/veh), C12orf56 (ProbeSet 11735607_a_at) / Fold change (ACY-1035/veh), C12orf56 (ProbeSet 11735607_a_at) / Fold change (Aza/veh), FGFR1OP (ProbeSet 11751329_s_at) / Fold change (ACY-1035/veh), FGFR1OP (ProbeSet 11751329_s_at) / Fold change (Aza/veh), VPS36 (ProbeSet 11739960_a_at) / Fold change (ACY-1035/veh), VPS36 (ProbeSet 11739960_a_at) / RFU SYPL1 (11715823_x_at) / Fold change /veh SYPL1 (11715823_x_at) / RFU IGFBP7 (11715501_s_at) / Fold change /veh IGFBP7 (11715501_s_at) / RFU REEP3 (11722064_at) / Fold change /veh REEP3 (11722064_at) / RFU IGLL1 (11728026_x_at) / Fold change /veh IGLL1 (11728026_x_at): dose or concentration left out as unconfirmed
Conditions: ProbeSet 11728676_at; LIST B

Question: With `Nc1ccc(-c2cccs2)cc1NC(=O)c1ccc2c(c1)cc(C1CC1)n2CCN1CCOCC1` [ACY-1035] as the molecule, how does the “Fold change vs veh, MED14” value read?
Answer: 0.95
